From patent US10065963B2 (Incyte Corporation, priority 2015, dated 2018)
Where a name gives a salt, the structure may show the parent alone. Read-outs that look alike come from different tables or passages of the source.

Experiments:
[1] = biological target: PI3Kδ (p110δ/p85α) Recombinant Human Protein (Homo sapiens (Human), UniProt O00329); experiment: PI3Kδ scintillation proximity assay; format: biochemical; details: 2 μM ATP, 20 μM PIP2
[2] = biological target: PI3Kγ (p110γ) Recombinant Human Protein (Homo sapiens (Human), UniProt P48736); experiment: PI3K-γ scintillation proximity assay; format: biochemical; details: 2 μM ATP, 20 μM PIP2
Sequence of PI3Kγ (p110γ) Recombinant Human Protein (P48736 whole entry): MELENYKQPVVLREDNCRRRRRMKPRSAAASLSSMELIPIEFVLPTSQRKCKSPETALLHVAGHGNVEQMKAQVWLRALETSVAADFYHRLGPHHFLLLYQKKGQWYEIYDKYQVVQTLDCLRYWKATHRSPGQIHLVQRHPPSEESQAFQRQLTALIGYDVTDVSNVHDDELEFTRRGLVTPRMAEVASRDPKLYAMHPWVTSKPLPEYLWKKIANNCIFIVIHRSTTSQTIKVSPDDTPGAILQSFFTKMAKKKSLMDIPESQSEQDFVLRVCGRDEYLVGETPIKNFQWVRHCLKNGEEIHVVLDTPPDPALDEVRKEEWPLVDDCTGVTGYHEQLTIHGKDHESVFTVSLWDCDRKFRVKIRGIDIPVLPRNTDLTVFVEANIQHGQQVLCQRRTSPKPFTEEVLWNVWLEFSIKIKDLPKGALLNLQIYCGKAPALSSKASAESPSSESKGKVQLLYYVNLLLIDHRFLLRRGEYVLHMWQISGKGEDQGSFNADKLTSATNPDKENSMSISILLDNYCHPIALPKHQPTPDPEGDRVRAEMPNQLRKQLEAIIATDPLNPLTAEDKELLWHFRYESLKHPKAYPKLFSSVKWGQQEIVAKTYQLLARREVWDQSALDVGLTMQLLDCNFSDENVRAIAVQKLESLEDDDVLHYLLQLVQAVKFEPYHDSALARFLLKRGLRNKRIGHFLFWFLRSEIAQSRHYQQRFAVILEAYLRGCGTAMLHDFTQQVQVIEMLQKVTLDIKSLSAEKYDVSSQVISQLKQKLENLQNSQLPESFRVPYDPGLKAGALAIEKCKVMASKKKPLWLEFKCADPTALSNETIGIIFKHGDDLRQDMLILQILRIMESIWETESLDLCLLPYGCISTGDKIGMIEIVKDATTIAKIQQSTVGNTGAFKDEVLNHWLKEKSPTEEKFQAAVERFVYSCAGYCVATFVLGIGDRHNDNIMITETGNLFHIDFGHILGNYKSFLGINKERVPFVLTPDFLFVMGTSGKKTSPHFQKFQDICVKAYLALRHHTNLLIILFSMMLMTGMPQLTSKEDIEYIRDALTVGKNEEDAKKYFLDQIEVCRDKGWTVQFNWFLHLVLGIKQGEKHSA

[3] = system: Phosphorylated Ribosomal Protein S6 (RPS6) in THP-1 cells; experiment: THP-1 RPS6 ELISA assay; format: cell-based, human; details: 10 nM MCP-1, read-out: PI3Kγ_THP1_RPS6_ELISA IC50
[4] = Homo sapiens, THP-1, THP-1 cells

Sequence of PI3Kδ (p110δ/p85α) Recombinant Human Protein (O00329 whole entry): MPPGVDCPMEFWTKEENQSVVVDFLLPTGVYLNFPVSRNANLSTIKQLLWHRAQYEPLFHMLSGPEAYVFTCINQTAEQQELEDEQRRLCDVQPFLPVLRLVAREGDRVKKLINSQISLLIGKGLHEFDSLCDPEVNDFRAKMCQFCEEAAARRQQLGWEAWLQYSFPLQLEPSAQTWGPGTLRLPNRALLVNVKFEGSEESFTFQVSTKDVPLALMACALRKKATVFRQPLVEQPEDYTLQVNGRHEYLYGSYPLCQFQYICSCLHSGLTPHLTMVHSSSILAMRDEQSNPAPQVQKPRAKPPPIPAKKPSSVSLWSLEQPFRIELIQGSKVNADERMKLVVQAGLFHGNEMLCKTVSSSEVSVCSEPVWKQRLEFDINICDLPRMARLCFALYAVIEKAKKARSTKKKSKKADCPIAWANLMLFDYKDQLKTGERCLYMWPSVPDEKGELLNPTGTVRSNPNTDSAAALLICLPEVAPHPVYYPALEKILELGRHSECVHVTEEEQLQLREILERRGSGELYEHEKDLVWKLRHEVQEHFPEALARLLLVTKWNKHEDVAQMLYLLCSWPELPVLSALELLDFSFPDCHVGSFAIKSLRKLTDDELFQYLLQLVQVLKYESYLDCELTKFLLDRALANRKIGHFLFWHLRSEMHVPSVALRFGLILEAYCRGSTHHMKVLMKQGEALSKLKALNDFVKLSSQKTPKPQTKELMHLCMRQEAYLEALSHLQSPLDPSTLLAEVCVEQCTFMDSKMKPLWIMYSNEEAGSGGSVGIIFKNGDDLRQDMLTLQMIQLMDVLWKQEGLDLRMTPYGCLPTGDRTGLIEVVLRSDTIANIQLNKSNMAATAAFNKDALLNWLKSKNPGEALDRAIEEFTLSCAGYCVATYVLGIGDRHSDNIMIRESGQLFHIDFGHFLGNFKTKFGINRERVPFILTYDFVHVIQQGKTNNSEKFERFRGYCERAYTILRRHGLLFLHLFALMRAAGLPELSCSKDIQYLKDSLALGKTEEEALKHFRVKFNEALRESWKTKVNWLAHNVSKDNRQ
Sequence of PI3Kδ (p110δ/p85α) Recombinant Human Protein (P27986 whole entry partner): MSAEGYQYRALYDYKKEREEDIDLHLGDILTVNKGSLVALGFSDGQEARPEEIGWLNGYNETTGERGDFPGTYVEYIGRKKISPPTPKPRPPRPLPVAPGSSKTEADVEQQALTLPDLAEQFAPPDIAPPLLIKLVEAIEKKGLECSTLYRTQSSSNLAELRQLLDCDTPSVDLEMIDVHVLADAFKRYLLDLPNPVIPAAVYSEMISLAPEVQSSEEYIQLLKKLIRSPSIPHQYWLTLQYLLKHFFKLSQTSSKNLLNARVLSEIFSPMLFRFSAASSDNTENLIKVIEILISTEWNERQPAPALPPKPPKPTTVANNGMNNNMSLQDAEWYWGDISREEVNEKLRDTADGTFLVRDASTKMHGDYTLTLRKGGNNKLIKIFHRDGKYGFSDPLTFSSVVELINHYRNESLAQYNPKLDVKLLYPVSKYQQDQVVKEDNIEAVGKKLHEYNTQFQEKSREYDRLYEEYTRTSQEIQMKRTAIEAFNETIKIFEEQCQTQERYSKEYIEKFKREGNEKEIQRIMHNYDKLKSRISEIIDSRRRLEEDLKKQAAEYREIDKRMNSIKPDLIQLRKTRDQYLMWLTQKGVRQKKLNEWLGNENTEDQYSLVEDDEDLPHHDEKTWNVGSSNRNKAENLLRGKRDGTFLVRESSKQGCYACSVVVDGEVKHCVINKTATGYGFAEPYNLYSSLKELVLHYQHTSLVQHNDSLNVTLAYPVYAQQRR

Structure (SMILES)	IC50 [1]	IC50 [2]	IC50 [3, 4]	IC50 ([3]; THP-1 cells)	IC50 ([3]; THP-1 cells, trifluoroacetate)
CC(NC(=O)c1c(N)nn2cccnc12)c1cc(Cl)c2cncn2c1N1CCCC(F)(F)C1 (stereo not drawn) [Example 67, 2-Amino-N-{1-[8-chloro-5-(3,3-difluoropiperidin-1-yl)imidazo[1,5-a]pyridin-6-yl]ethyl}pyrazolo[1,5-a]pyrimidine-3-carboxamide bis trifluroacetate]	< 0.1 µM	< 0.1 µM	< 0.5 µM	–	–
CCOc1c(C(C)NC(=O)c2c(N)nn3cccnc23)cc(Cl)c2c(Br)n(CCO)nc12 (stereo not drawn) [Example 53, 2-Amino-N-(1-(3-bromo-4-chloro-7-ethoxy-2-(2-hydroxyethyl)-2H-indazol-6-yl)ethyl)pyrazolo[1,5-a]pyrimidine-3-carboxamide]	< 2 µM	< 0.1 µM	> 1 µM	–	–
COC1CCN(c2c(C(C)NC(=O)c3c(N)nn4cccnc34)cc(Cl)c3cncn23)CC1 (racemic) [Example 143, 2-Amino-N-{1-[8-chloro-5-(4-methoxypiperidin-1-yl)imidazo[1,5-a]pyridin-6-yl]ethyl}pyrazolo[1,5-a]pyrimidine-3-carboxamide]	< 0.5 µM	< 0.1 µM	< 1 µM	–	–
CC(NC(=O)c1c(N)nn2cccnc12)c1cc(Cl)c2cncn2c1N1CCS(=O)(=O)C(C)(C)C1 (stereo not drawn) [Example 40, 2-Amino-N-(1-[8-chloro-5-(2,2-dimethyl-1,1-dioxidothiomorpholin-4-yl)imidazo[1,5-a]pyridin-6-yl]ethyl)pyrazolo[1,5-a]pyrimidine-3-carboxamide trifluoroacetate salt]	< 0.1 µM	< 0.1 µM	< 0.5 µM	–	–
CCOc1c(C(C)NC(=O)c2c(N)nn3ccc(-c4cncc(OC)c4)nc23)cc(Cl)c2cn[nH]c12 (stereo not drawn) [Example 41, 2-Amino-N-(1-(4-chloro-7-ethoxy-1H-indazol-6-yl)ethyl)-5-(5-methoxypyridin-3-yl)pyrazolo[1,5-a]pyrimidine-3-carboxamide]	< 0.1 µM	< 0.1 µM	< 0.5 µM	–	–
CC1CN(c2c(C(NC(=O)c3c(N)nn4cccnc34)C(F)(F)F)cc(Cl)c3c(C#N)ncn23)CCS1(=O)=O (stereo not drawn) [Example 177, 2-Amino-N-(1-(8-chloro-1-cyano-5-(2-methyl-1,1-dioxidothiomorpholino)imidazo[1,5-a]pyridin-6-yl)-2,2,2-trifluoroethyl)pyrazolo[1,5-a]pyrimidine-3-carboxamide trifluoroacetate salt]	≥ 2 µM	< 0.1 µM	< 1 µM	–	–
CC(=O)N[C@H]1CCCN(c2c(C(C)NC(=O)c3c(N)nn4cccnc34)cc(Cl)c3cn[nH]c23)C1 (stereo partly drawn) [Example 104, N-(1-(7-((S)-3-Acetamidopiperidin-1-yl)-4-chloro-1H-indazol-6-yl)ethyl)-2-aminopyrazolo[1,5-a]pyrimidine-3-carboxamide trifluoroacetate]	< 0.1 µM	< 0.1 µM	< 0.5 µM	–	–
CC(NC(=O)c1c(N)nn2cccnc12)c1cc(Cl)c2cn[nH]c2c1N1CC[C@H](NS(C)(=O)=O)C1 (stereo partly drawn) [Example 96A, 2-Amino-N-[1-(4-chloro-7-{(3S)-3-[(methylsulfonyl)amino]pyrrolidin-1-yl}-2H-indazol-6-yl)ethyl]pyrazolo[1,5-a]pyrimidine-3-carboxamide trifluoroacetate]	< 0.1 µM	< 0.1 µM	< 1 µM	–	–
CC(NC(=O)c1c(N)nn2cccnc12)c1cc(Cl)c2cn[nH]c2c1N1CC[C@@H](NS(C)(=O)=O)C1 (stereo partly drawn) [Example 96B, 2-Amino-N-[1-(4-chloro-7-{(3R)-3-[(methylsulfonyl)amino]pyrrolidin-1-yl}-2H-indazol-6-yl)ethyl]pyrazolo[1,5-a]pyrimidine-3-carboxamide trifluoroacetate]	< 0.1 µM	< 0.1 µM	> 1 µM	–	–
N#Cc1ncn2c(N3CCCC3)c(CNC(=O)c3c(N)nn4cccnc34)cc(Cl)c12 [Example 173, 2-Amino-N-((8-chloro-1-cyano-5-(pyrrolidin-1-yl)imidazo[1,5-a]pyridin-6-yl)methyl)pyrazolo[1,5-a]pyrimidine-3-carboxamide trifluoroacetate salt]	< 2 µM	< 0.5 µM	> 1 µM	–	–
COC1CC=C(c2c(C(C)NC(=O)c3c(N)nn4cccnc34)cc(Cl)c3cn[nH]c23)CC1 (stereo not drawn) [Example 100, 2-Amino-N-{1-[4-chloro-7-(4-methoxycyclohex-1-en-1-yl)-2H-indazol-6-yl]ethyl}pyrazolo[1,5-a]pyrimidine-3-carboxamide trifluoroacetate]	< 0.5 µM	< 0.1 µM	> 1 µM	–	–
CC(NC(=O)c1c(N)nn2cccnc12)c1cc(Cl)c2cncn2c1N1CCN(C)C(=O)C1 (racemic) [Example 154, 2-Amino-N-{1-[8-chloro-5-(4-methyl-3-oxopiperazin-1-yl)imidazo[1,5-a]pyridin-6-yl]ethyl}pyrazolo[1,5-a]pyrimidine-3-carboxamide trifluoroacetate salt]	< 0.5 µM	< 0.5 µM	< 1 µM	–	–
CC(NC(=O)c1c(N)nn2cccnc12)c1cc(Cl)c2c(Cl)ncn2c1N1CCS(=O)(=O)CC1 (racemic) [Example 162, 2-Amino-N-{1-[1,8-dichloro-5-(1,1-dioxidothiomorpholin-4-yl)imidazo[1,5-a]pyridin-6-yl]ethyl}pyrazolo[1,5-a]pyrimidine-3-carboxamide trifluoroacetate salt]	< 0.5 µM	< 0.1 µM	< 0.5 µM	–	–
CC(NC(=O)c1c(N)nn2cccnc12)c1cc(Cl)c2cncn2c1N1CCS(=O)(=O)CC1C (stereo not drawn) [Example 38B, 2-Amino-N-(1-[8-chloro-5-(3-methyl-1,1-dioxidothiomorpholin-4-yl)imidazo[1,5-a]pyridin-6-yl]ethyl)pyrazolo[1,5-a]pyrimidine-3-carboxamide trifluoroacetate salt]	< 0.1 µM	< 0.1 µM	< 0.5 µM	–	–

The next lines start with the values.

IC50 [1]	IC50 [2]	IC50 [3, 4]	IC50 ([3]; THP-1 cells)	IC50 ([3]; THP-1 cells, trifluoroacetate)	Structure (SMILES)
< 0.1 µM	< 0.1 µM	–	< 0.5 µM	–	CC(NC(=O)c1c(N)nn2cccnc12)c1cc(Cl)c2cncn2c1N1CCCC(C)(C#N)C1 (single isomer, unassigned) [Example 77B, 2-Amino-N-{1-[8-chloro-5-(3-cyano-3-methylpiperidin-1-yl)imidazo[1,5-a]pyridin-6-yl]ethyl}pyrazolo[1,5-a]pyrimidinc-3-carboxamide trifluroacetate]
< 0.1 µM	< 0.1 µM	< 0.5 µM	–	–	CC(NC(=O)c1c(N)nn2cccnc12)c1cc(Cl)c2cncn2c1N1C[C@H](O)C[C@H](O)C1 (stereo partly drawn) [Example 155B, 2-Amino-N-(1-{8-chloro-5-[(3R,5S)-3,5-dihydroxypiperidin-1-yl]imidazo[1,5-a]pyridin-6-yl}ethyl)pyrazolo[1,5-a]pyrimidine-3-carboxamide trifluoroacetate salt]
< 0.5 µM	< 0.1 µM	–	–	< 0.5 µM	CNC(=O)C1CCN(c2c(C(C)NC(=O)c3c(N)nn4cccnc34)cc(Cl)c3cn[nH]c23)C1 (single isomer, unassigned) [Example 103B, 2-Amino-N-[1-(4-chloro-7-{3-[(methylamino)carbonyl]pyrrolidin-1-yl}-2H-indazol-6-yl)ethyl]pyrazolo[1,5-a]pyrimidine-3-carboxamide trifluoroacetate]
